This experiment relates to D. immitis GA III (susceptible isolate). More on the design: species or system Dirofilaria immitis. As to conditions: in vivo.

Regarding Milbemycin oxime [MBO], the “Number of GA III Worms” value was found to be 0. Where the note is “po”, the “Percentage of GA III Worms” value stood at 0%.

Values taken from US20230313318A1, “MICR[…] METHOD OF USE THEREOF” (priority 2022, published 2023).
